From patent US10506810B2, “Synergistic herbicidal composition” (QINGDAO KINGAGROOT RESISTANT WEED MANAGEMENT CO., LTD., priority 2015, dated 2019)
Like-named read-outs stand apart in the source and are kept apart here.

Legend:
Assay in all cases: pot-culture method, stem and leaf treatment in greenhouse, fresh weight inhibition rate 20 days after treatment (Gowing method)
Format in all cases: in vivo
Alopecurus japonicus = test system: Alopecurus japonicus
Description: (§1) Capsella bursa-pastoris, Myosoton aquaticum, Alopecurus japonicus were collected from corn fields in Huangdao Experimental Base of Shandong Province.
(§2) The above weeds were cultivated by a pot culture method. […] Full and uniform weed seeds were selected, soaked in warm water at 25° C. for 6 hours, and germinated in a 28° C. biochemical incubator (darkness). […] A certain amount of water was added to the enamel pan regularly to keep the soil moist.
(§3) The technical materials were all dissolved in acetone, and diluted with an aqueous solution containing 0.1% emulsifier T-80. The dilution is performed as required.
(§4) A ratio of the active ingredient A to the active ingredient B and amounts thereof in each group depends on the characteristics and toxicity of the two agents, as well as the main application purpose of a corresponding formulation. Based on the pre-tests in this study, the dosage of the active ingredient A and the active ingredient B applied alone and in combination were shown in the tables, and a total 15 groups were designed. Water containing the solvent and emulsifier same with the above groups but free of the agents was used as a blank control.
(§5) 3 pots with 20 weed seeds per pot were treated in one treatment with […] per treatment, that is, a total of 60 weeds were treated in one treatment.
(§6) The agents were used for only once in the experiment. In the stage of weeds with 2 leaves and 1 core, the weeds were thinned out to maintain 15 weeds per pot and 45 weeds for each treatment, then continued to be cultured to 3-5-leaves stage of Capsella bursa-pastoris and Myosoton aquaticum, and 3-leaves and 1-core stage of Alopecurus japonicus, and treated.
(§7) The well-cultured weeds were evenly placed on a platform with an area of 0.5 m^2, and a solution of agents was sprayed on the stems and leaves thereof by the 3WP-2000-type walking spray tower at a dosage of 30 kg/ha and at a spray pressure of 0.3 MPa. After all the solution was sprayed, the valve was closed. After 30 seconds, the door of the spray tower was opened, and the nutritional bowl was taken out. Then the valve was opened, and the spray tube was cleaned by spraying 50 ml of water.
(§8) A pot-culture method was employed. For the cultivation of weeds, please refer to the Section 1.2, and “Pesticide guidelines for laboratory bioactivity tests—herbicides”. As to a method for applying agents, please refer to the section 2.3.2, that is, a method for treating stems and leaves was employed.
(§9) A method for investigating absolute number was employed, wherein whole seedlings of survival weeds were cut off with a blade along the soil surface, and the fresh weight of the weeds was weighed with an analytical balance. For dead weeds, the fresh weight thereof was zero.
(§10) The investigation was performed after 20 days of the treatment for only once.
(§11) Wherein, in the formula, X represented the fresh weight inhibition rate of the active ingredient A in a dosage of P, and Y represented the fresh weight inhibition rate of the active ingredient B in a dosage of Q.

Capsella bursa-pastoris = test system: Capsella bursa-pastoris
Description: as §1, §2, §3, §4, §5, §6, §7, §8, §9, §10, §11

Myosoton aquaticum = test system: Myosoton aquaticum
Description: as §1, §2, §3, §4, §5, §6, §7, §8, §9, §10, §11

[1] = Capsella bursa-pastoris, 480 h, read-out: actual fresh weight inhibition rate

SMILES: COc1nn(C(=O)[N-]S(=O)(=O)c2ccccc2OC(F)(F)F)c(=O)n1C.[Na+] [Flucarbazone-sodium]
- actual fresh weight inhibition rate (Alopecurus japonicus; dosage 20 g/hm^2): 69.6%
- actual fresh weight inhibition rate (Alopecurus japonicus; dosage 35 g/hm^2): 80.3%
- actual fresh weight inhibition rate (Alopecurus japonicus; dosage 50 g/hm^2): 85.6%
- actual fresh weight inhibition rate (Capsella bursa-pastoris; dosage 20 g/hm^2): 25.6%
- actual fresh weight inhibition rate (Capsella bursa-pastoris; dosage 35 g/hm^2): 42.7%
- actual fresh weight inhibition rate (Capsella bursa-pastoris; dosage 50 g/hm^2): 65.1%

SMILES: COc1cc(OC)n2nc(NS(=O)(=O)c3c(C(F)(F)F)ccnc3OC)nc2n1 [pyroxsulam]
- actual fresh weight inhibition rate (Alopecurus japonicus; dosage 5 g/hm^2): 63.5%
- actual fresh weight inhibition rate (Alopecurus japonicus; dosage 10 g/hm^2): 81.9%
- actual fresh weight inhibition rate (Alopecurus japonicus; dosage 15 g/hm^2): 91.5%
- actual fresh weight inhibition rate (Capsella bursa-pastoris; dosage 5 g/hm^2): 19.4%
- actual fresh weight inhibition rate (Capsella bursa-pastoris; dosage 10 g/hm^2): 31.7%
- actual fresh weight inhibition rate (Capsella bursa-pastoris; dosage 15 g/hm^2): 55.6%

SMILES: C[C@@H](Oc1ccc(Oc2ncc(Cl)cc2F)cc1)C(=O)O [clodinafop]
- actual fresh weight inhibition rate (Alopecurus japonicus; Alopecurus japonicus, 40 g/hm^2): 81.3%
- actual fresh weight inhibition rate (Alopecurus japonicus; Alopecurus japonicus, 65 g/hm^2): 87.4%
- actual fresh weight inhibition rate (Alopecurus japonicus; Alopecurus japonicus, 90 g/hm^2): 95.6%
- actual fresh weight inhibition rate (Capsella bursa-pastoris; Capsella bursa-pastoris, 40 g/hm^2): 0%
- actual fresh weight inhibition rate (Capsella bursa-pastoris; Capsella bursa-pastoris, 65 g/hm^2): 0%
- actual fresh weight inhibition rate (Capsella bursa-pastoris; Capsella bursa-pastoris, 90 g/hm^2): 0%

SMILES: CCO/N=C(\CC)C1=C(O)CC(c2c(C)cc(C)cc2C)CC1=O (stereo not shown) [tralkoxydim]
- actual fresh weight inhibition rate (Alopecurus japonicus; Alopecurus japonicus, 240 g/hm^2): 74.5%
- actual fresh weight inhibition rate (Alopecurus japonicus; Alopecurus japonicus, 360 g/hm^2): 81.2%
- actual fresh weight inhibition rate (Alopecurus japonicus; Alopecurus japonicus, 480 g/hm^2): 89.8%
- pest or weed control at 240 g/ha (Capsella bursa-pastoris; [1]): 0%
- pest or weed control at 360 g/ha (Capsella bursa-pastoris; [1]): 0%
- pest or weed control at 480 g/ha (Capsella bursa-pastoris; [1]): 0%

SMILES: COC(=O)c1ccc(CNS(C)(=O)=O)cc1S(=O)(=O)NC(=O)Nc1nc(OC)cc(OC)n1 [mesosulfuron-methyl]
- actual fresh weight inhibition rate (Alopecurus japonicus; dosage 6 g/hm^2): 67.9%
- actual fresh weight inhibition rate (Alopecurus japonicus; dosage 9 g/hm^2): 73.2%
- actual fresh weight inhibition rate (Alopecurus japonicus; dosage 12 g/hm^2): 88.9%
- actual fresh weight inhibition rate (Capsella bursa-pastoris; dosage 6 g/hm^2): 24.5%
- actual fresh weight inhibition rate (Capsella bursa-pastoris; dosage 9 g/hm^2): 37.6%
- actual fresh weight inhibition rate (Capsella bursa-pastoris; dosage 12 g/hm^2): 63.4%

SMILES: CCc1cc(C)cc(CC)c1-c1c(OC(=O)C(C)(C)C)n2n(c1=O)CCOCC2 [pinoxaden]
- actual fresh weight inhibition rate (Alopecurus japonicus; dosage 60 g/hm^2): 69.2%
- actual fresh weight inhibition rate (Alopecurus japonicus; dosage 80 g/hm^2): 78.6%
- actual fresh weight inhibition rate (Alopecurus japonicus; dosage 120 g/hm^2): 85.2%
- pest or weed control at 60 g/ha (Capsella bursa-pastoris; Capsella bursa-pastoris, 480 h, dosage 60 g/hm^2, read-out: actual fresh weight inhibition rate): 0%
- pest or weed control at 80 g/ha (Capsella bursa-pastoris; Capsella bursa-pastoris, 480 h, dosage 80 g/hm^2, read-out: actual fresh weight inhibition rate): 0%
- pest or weed control at 120 g/ha (Capsella bursa-pastoris; Capsella bursa-pastoris, 480 h, dosage 120 g/hm^2, read-out: actual fresh weight inhibition rate): 0%

SMILES: Cc1cc(Cl)ccc1OCC(=O)OCCCCCC(C)C [MCPA-isooctyl, reference compound]
- actual fresh weight inhibition rate (%) (Capsella bursa-pastoris; dosage 600 g/hm^2): 33.2%
- actual fresh weight inhibition rate (%) (Capsella bursa-pastoris; dosage 1200 g/hm^2): 41.7%
- actual fresh weight inhibition rate (%) (Capsella bursa-pastoris; dosage 1800 g/hm^2): 60.5%
- actual fresh weight inhibition rate (%) (Myosoton aquaticum; dosage 600 g/hm^2): 23.8%
- actual fresh weight inhibition rate (%) (Myosoton aquaticum; dosage 1200 g/hm^2): 35.6%
- actual fresh weight inhibition rate (%) (Myosoton aquaticum; dosage 1800 g/hm^2): 45.8%

SMILES: CC(C)c1ccc(NC(=O)N(C)C)cc1 [isoproturon]
- pest or weed control at 300 g/ha (Capsella bursa-pastoris; 480 h, Capsella bursa-pastoris, 300 g/hm^2, read-out: actual fresh weight inhibition rate): 21.7%
- pest or weed control at 750 g/ha (Capsella bursa-pastoris; 480 h, Capsella bursa-pastoris, 750 g/hm^2, read-out: actual fresh weight inhibition rate): 33.7%
- pest or weed control at 1200 g/ha (Capsella bursa-pastoris; 480 h, Capsella bursa-pastoris, 1200 g/hm^2, read-out: actual fresh weight inhibition rate): 57.2%
- pest or weed control at 300 g/ha (Myosoton aquaticum; Myosoton aquaticum, 480 h, Myosoton aquaticum, 300 g/hm^2, read-out: actual fresh weight inhibition rate): 19.4%
- pest or weed control at 750 g/ha (Myosoton aquaticum; Myosoton aquaticum, 480 h, Myosoton aquaticum, 750 g/hm^2, read-out: actual fresh weight inhibition rate): 26.4%
- pest or weed control at 1200 g/ha (Myosoton aquaticum; Myosoton aquaticum, 480 h, Myosoton aquaticum, 1200 g/hm^2, read-out: actual fresh weight inhibition rate): 47.5%

SMILES: Cc1nn(-c2cc(CC(Cl)C(=O)O)c(Cl)cc2F)c(=O)n1C(F)F (stereo not shown) [carfentrazone, reference compound]
- actual fresh weight inhibition rate (%) (Capsella bursa-pastoris; dosage 12 g/hm^2): 55.2%
- actual fresh weight inhibition rate (%) (Capsella bursa-pastoris; dosage 24 g/hm^2): 71.3%
- actual fresh weight inhibition rate (%) (Capsella bursa-pastoris; dosage 36 g/hm^2): 80.5%
- actual fresh weight inhibition rate (%) (Myosoton aquaticum; dosage 12 g/hm^2): 32.1%
- actual fresh weight inhibition rate (%) (Myosoton aquaticum; dosage 24 g/hm^2): 45.8%
- actual fresh weight inhibition rate (%) (Myosoton aquaticum; dosage 36 g/hm^2): 60.1%

SMILES: Cc1ccc(NC(=O)N(C)C)cc1Cl [chlorotoluron]
- pest or weed control at 1500 g/ha (Capsella bursa-pastoris; Capsella bursa-pastoris, 480 h, dosage 1500 g/hm^2, read-out: actual fresh weight inhibition rate): 33.5%
- pest or weed control at 2250 g/ha (Capsella bursa-pastoris; Capsella bursa-pastoris, 480 h, dosage 2250 g/hm^2, read-out: actual fresh weight inhibition rate): 43.7%
- pest or weed control at 3000 g/ha (Capsella bursa-pastoris; Capsella bursa-pastoris, 480 h, dosage 3000 g/hm^2, read-out: actual fresh weight inhibition rate): 57.3%
- pest or weed control at 1500 g/ha (Myosoton aquaticum; Myosoton aquaticum, 480 h, dosage 1500 g/hm^2, read-out: actual fresh weight inhibition rate): 34.7%
- pest or weed control at 2250 g/ha (Myosoton aquaticum; Myosoton aquaticum, 480 h, dosage 2250 g/hm^2, read-out: actual fresh weight inhibition rate): 43.8%
- pest or weed control at 3000 g/ha (Myosoton aquaticum; Myosoton aquaticum, 480 h, dosage 3000 g/hm^2, read-out: actual fresh weight inhibition rate): 60.1%

SMILES: Cc1nn(C)cc1C(=O)Oc1c(C(=O)c2ccc(C(F)(F)F)cc2S(C)(=O)=O)c(C)nn1C [active ingredient A]
- actual fresh weight inhibition rate (Alopecurus japonicus; Alopecurus japonicus, 15 g/hm^2): 13.2%
- actual fresh weight inhibition rate (Alopecurus japonicus; Alopecurus japonicus, 30 g/hm^2): 16.5%
- actual fresh weight inhibition rate (Alopecurus japonicus; Alopecurus japonicus, 45 g/hm^2): 24.6%
- actual fresh weight inhibition rate (Alopecurus japonicus; dosage 15 g/hm^2): 13.2%
- actual fresh weight inhibition rate (Alopecurus japonicus; dosage 30 g/hm^2): 16.5%
- actual fresh weight inhibition rate (Alopecurus japonicus; dosage 45 g/hm^2): 24.6%
- pest or weed control at 15 g/ha (Capsella bursa-pastoris; 480 h, Capsella bursa-pastoris, 15 g/hm^2, read-out: actual fresh weight inhibition rate): 72.3%
- pest or weed control at 30 g/ha (Capsella bursa-pastoris; 480 h, Capsella bursa-pastoris, 30 g/hm^2, read-out: actual fresh weight inhibition rate): 90.5%
- pest or weed control at 45 g/ha (Capsella bursa-pastoris; 480 h, Capsella bursa-pastoris, 45 g/hm^2, read-out: actual fresh weight inhibition rate): 100%
- pest or weed control at 15 g/ha (Myosoton aquaticum; Myosoton aquaticum, 480 h, Myosoton aquaticum (Table 19), 15 g/hm^2, read-out: actual fresh weight inhibition rate): 13.2%
- pest or weed control at 30 g/ha (Myosoton aquaticum; Myosoton aquaticum, 480 h, Myosoton aquaticum (Table 19), 30 g/hm^2, read-out: actual fresh weight inhibition rate): 16.5%
- pest or weed control at 45 g/ha (Myosoton aquaticum; Myosoton aquaticum, 480 h, Myosoton aquaticum (Table 19), 45 g/hm^2, read-out: actual fresh weight inhibition rate): 24.6%
- pest or weed control at 15 g/ha (Myosoton aquaticum; Myosoton aquaticum, 480 h, Myosoton aquaticum, 15 g/hm^2, read-out: actual fresh weight inhibition rate): 67.4%
- pest or weed control at 30 g/ha (Myosoton aquaticum; Myosoton aquaticum, 480 h, Myosoton aquaticum, 30 g/hm^2, read-out: actual fresh weight inhibition rate): 87.6%
- pest or weed control at 45 g/ha (Myosoton aquaticum; Myosoton aquaticum, 480 h, Myosoton aquaticum, 45 g/hm^2, read-out: actual fresh weight inhibition rate): 100%
- pest or weed control at 15 g/ha (Myosoton aquaticum; Myosoton aquaticum, 480 h, dosage 15 g/hm^2, read-out: actual fresh weight inhibition rate): 67.4%
- pest or weed control at 30 g/ha (Myosoton aquaticum; Myosoton aquaticum, 480 h, dosage 30 g/hm^2, read-out: actual fresh weight inhibition rate): 87.6%
- pest or weed control at 45 g/ha (Myosoton aquaticum; Myosoton aquaticum, 480 h, dosage 45 g/hm^2, read-out: actual fresh weight inhibition rate): 100%

SMILES: CCCCOC(=O)COc1ccc(Cl)cc1Cl [2,4-butyl ester, 2,4-D butyl ester, reference compound]
- actual fresh weight inhibition rate (%) (Capsella bursa-pastoris; dosage 200 g/hm^2): 23.4%
- actual fresh weight inhibition rate (%) (Capsella bursa-pastoris; dosage 350 g/hm^2): 42.9%
- actual fresh weight inhibition rate (%) (Capsella bursa-pastoris; dosage 500 g/hm^2): 55.6%
- actual fresh weight inhibition rate (%) (Myosoton aquaticum; dosage 200 g/hm^2): 18.4%
- actual fresh weight inhibition rate (%) (Myosoton aquaticum; dosage 350 g/hm^2): 29.8%
- actual fresh weight inhibition rate (%) (Myosoton aquaticum; dosage 500 g/hm^2): 49.3%

SMILES: COC(=O)c1nc(-c2ccc(Cl)c(OC)c2F)cc(N)c1Cl [halauxifen-methyl, reference compound]
- actual fresh weight inhibition rate (%) (Capsella bursa-pastoris; dosage 5 g/hm^2): 59.7%
- actual fresh weight inhibition rate (%) (Capsella bursa-pastoris; dosage 10 g/hm^2): 71.4%
- actual fresh weight inhibition rate (%) (Myosoton aquaticum; dosage 5 g/hm^2): 17.5%
- actual fresh weight inhibition rate (%) (Myosoton aquaticum; dosage 10 g/hm^2): 35.6%
